Consider ten compounds from paper PMC6895213, “Four New Picrotoxane-Type Sesquiterpenes From Dendrobium nobile Lindl” (Frontiers in Chemistry, 2019).

For one series, the system named is BEL-7402 cell line. Nature of the series: MTT cytotoxicity assay, BEL-7402. As to conditions: MTT method, BEL-7402 cells. It counts as cell-based. As to the method:
(§1) The MTT method optimized by Mosmann ([1983]) was performed in vitro to test the cytotoxic activity of compounds 1–8. Cisplatin was used as a positive control.
(§2) Compounds 1–8 were tested for inhibitory activity against α-glycosidase using the PNPG method and for cytotoxic effects on SGC-7901, K562, A549, BEL-7402, and Hela cell lines using the MTT method (See Supplementary Table 1 in the Supplementary Material).

In a further series the test system is SGC-7901 cell line. Kind of series: MTT cytotoxicity assay, SGC-7901. The series is classed as cell-based. As to conditions: MTT method, SGC-7901 cells. As to the method: as §1, §2
(In general: Tetrazolium assays rely on reduction of a dye to a coloured formazan, in cell work by metabolically active cells.)

For a further series, the system named is A549 cell line. Nature of the series: MTT cytotoxicity assay, A549. It counts as cell-based. As to conditions: MTT method, A549 cells. As to the method: as §1, §2
A further series concerns the target α-glycosidase. Nature of the series: α-glycosidase inhibitory activity (PNPG method). The series is classed as biochemical. The settings on record: yeast enzyme EC 3.2.1.20. How it is done:
Optical rotations were measured on a MCP 5100 modular compact polarimeter (Anton Paar, America). IR spectra were taken on a Nicolet 380 FT-IR instrument (Thermo, USA) as KBr discs. NMR spectra were recorded on a Bruker Avance III 500 MHz NMR spectrometer (Bruker, German). ESIMS and HRESIMS were recorded with amaZon SL (Bruker) or Compact QqTOF (Bruker). ECD spectra were measured by APL Chiascan (Applied Photophysics Ltd., England). Semi-preparative HPLC was carried out using a C18 column (Cosmosil-pack, 10 × 250 mm, 5 μm, 4 mL/min, Nacalai Tesque). C18 gel (20–45 μm, Fuji SilysiSa Chemical Co., Ltd., Greenville, NC, UA), Silica gel (60–80, 200–300 mesh, Qingdao Marine Chemical Co., Ltd., Qingdao, China), Sephadex LH-20 (Merck, Kenilworth, NJ, USA) were used for column chromatograghy. α-glycosidase (Sigma-Aldrich, UA) used for the bioactivity was derived from yeast and its EINECS (EC) unmber is 3.2.1.20.
The method optimized by Jong et al. ([2007]) was performed in vitro to test the α-glucosidase inhibitory activity of compounds 1–8. Acarbose was used as positive control.
as §2

The next series concerns K562 cell line. Kind of series: MTT cytotoxicity assay, K562. The series is classed as cell-based. The settings on record: MTT method, K562 cells. How it is done:
as §1, §2

The test system of another series is Hela cell line. Nature of the series: MTT cytotoxicity assay, Hela. The series is classed as cell-based. As to conditions: MTT method, Hela cells. How it is done: as §1, §2
The subject of series [1] is activated murine macrophage-like cell line RAW 264.7. Also noted: method as in Zhang et al., 2007b. As to conditions: activated RAW 264.7 cells; ref Zhang et al., 2007b; cited from earlier work.

By IC50 is commonly meant the concentration needed to halve the response being measured. As usually defined, the melting point is the temperature of the solid-liquid transition.

Structures are written as SMILES. Some results are limits rather than exact numbers.

Take `COc1cccc(CC2C3=C(Oc4c2cc(O)c(O)c4OC)C(=O)c2cc(O)c4cc(O)ccc4c2C3=O)c1` (stereo not shown) [Compound 6, dendrocandin V]: the half-maximal inhibitory concentration (IC50) in the series with BEL-7402 cell line (Homo sapiens) was more than 50 µM; in the series on SGC-7901 cell line (Homo sapiens), more than 50 µM; in the series on A549 cell line (Homo sapiens) it was more than 50 µM; against α-glycosidase, 680 µM; in the series with K562 cell line (Homo sapiens) it was 28.2 µM; in the series with Hela cell line (Homo sapiens), more than 50 µM.
For `CC(C)C1C2OC(=O)C1C1CC=CC1(C)C2NC=O` (stereo not shown) [Compound 1, Dendroterpene A], the melting point was in the range of 185 to 186 °C. Further, in the series on BEL-7402 cell line (Homo sapiens), the IC50 is more than 50 µM. In the series with SGC-7901 cell line (Homo sapiens), the IC50 was more than 50 µM. For the same compound, the half-maximal inhibitory concentration (IC50) in the series with A549 cell line (Homo sapiens) was more than 50 µM. The IC50 against α-glycosidase was more than 1000 µM. The same compound gave an IC50 in the series on K562 cell line (Homo sapiens) of more than 50 µM. In addition, the IC50 with Hela cell line (Homo sapiens) is more than 50 µM.
As for `CC(=O)/C=C/[C@@]1(O)C(C)=CC(=O)CC1(C)C` [Compound 7, S(+)-dehydrovomifoliol], the IC50 was more than 50 µM in the series with BEL-7402 cell line (Homo sapiens); more than 50 µM in the series on SGC-7901 cell line (Homo sapiens); more than 50 µM in the series on A549 cell line (Homo sapiens); more than 1000 µM against α-glycosidase; more than 50 µM in the series with K562 cell line (Homo sapiens); more than 50 µM in the series with Hela cell line (Homo sapiens).
With `COc1cccc(CCc2cc(OC)c(O)c3c2C(Cc2cccc(OC)c2)c2cc(O)c(O)c(OC)c2O3)c1` (stereo not shown) [Compound 5, nobilin E], the IC50 in the series with BEL-7402 cell line (Homo sapiens) was found to be 20.1 µM; with SGC-7901 cell line (Homo sapiens), 17.3 µM; in the series with A549 cell line (Homo sapiens) it was 29 µM; on α-glycosidase it was 30 µM; in the series on K562 cell line (Homo sapiens) it was 10.4 µM; with Hela cell line (Homo sapiens) it was 22.2 µM. For the same compound, the “inhibitory effects on NO production” value in series [1] is given as “exhibited inhibitory effects on NO production”.
In turn, `CC(C)C1C2OC(=O)C1C1(O)CC=CC1(C)C2NC=O` (stereo not shown) [Compound 2, Dendroterpene B] returned a melting point of 200 to 201 °C. This compound had an IC50 in the series on BEL-7402 cell line (Homo sapiens) of more than 50 µM. This compound also showed an IC50 with SGC-7901 cell line (Homo sapiens) of more than 50 µM. This compound also yielded a half-inhibitory concentration (IC50) in the series on A549 cell line (Homo sapiens) of more than 50 µM. On α-glycosidase, this compound yielded an IC50 of more than 1000 µM. In addition, in the series with K562 cell line (Homo sapiens), the half-maximal inhibitory concentration (IC50) was more than 50 µM. The compound also showed a 50% inhibitory concentration (IC50) with Hela cell line (Homo sapiens) of more than 50 µM.
As to `N.N.[Cl][Pt][Cl]` [Cisplatin, reference compound], the concentration for half-maximal inhibition (IC50) amounted to 4.02 µM in the series on BEL-7402 cell line; 4.11 µM in the series with SGC-7901 cell line; 1.93 µM in the series with A549 cell line; 3.08 µM in the series with K562 cell line; 11.3 µM in the series with Hela cell line.
`Oc1ccc(CCOCCc2ccc(O)cc2)cc1` [Compound 8, di-[2-(4-hydroxyphenyl)] ethyl ether]: the IC50 is more than 50 µM with BEL-7402 cell line (Homo sapiens); more than 50 µM with SGC-7901 cell line (Homo sapiens); more than 50 µM with A549 cell line (Homo sapiens); 300 µM against α-glycosidase; more than 50 µM in the series with K562 cell line (Homo sapiens); more than 50 µM in the series with Hela cell line (Homo sapiens).
On to `C[C@H]1O[C@H](O[C@H]2[C@H](O)[C@@H](O)[C@@H](O[C@H]3[C@H](O)[C@@H](O)C(O)O[C@@H]3CO)O[C@@H]2CO)[C@H](O)[C@@H](O)[C@@H]1N[C@H]1C=C(CO)[C@@H](O)[C@H](O)[C@H]1O` (stereo partly shown) [Acarbose, reference compound], for which, at α-glycosidase, the IC50 is 720 µM.
Turning to `CC(C)C1C2OC(=O)C1C1CCC3C(=O)OC2C31C` (stereo not shown) [Compound 3, Dendroterpene C], the IC50 with BEL-7402 cell line (Homo sapiens) was more than 50 µM; in the series on SGC-7901 cell line (Homo sapiens) it was more than 50 µM; in the series with A549 cell line (Homo sapiens) it was more than 50 µM; against α-glycosidase, 970 µM; with K562 cell line (Homo sapiens), more than 50 µM; in the series on Hela cell line (Homo sapiens), more than 50 µM.
With `CC(C)C1C2OC(=O)C1C1CCC3(O)C(=O)OC2C13C` (stereo not shown) [Compound 4, Dendroterpene D], the melting point lay in the range of 167 to 168 °C. Further, the IC50 in the series with BEL-7402 cell line (Homo sapiens) was more than 50 µM. In the series on SGC-7901 cell line (Homo sapiens), this compound gave a half-inhibitory concentration (IC50) of more than 50 µM. Further, the IC50 in the series with A549 cell line (Homo sapiens) is more than 50 µM. On α-glycosidase, the concentration for half-maximal inhibition (IC50) is more than 1000 µM. For the same compound, the IC50 in the series on K562 cell line (Homo sapiens) was more than 50 µM. Also, the IC50 in the series on Hela cell line (Homo sapiens) was more than 50 µM.
